Source: patent publication US7501397B2, “Helical peptidomimetics with enhanced activity” (The Brigham and Women's Hospital, Inc., priority 2004, dated 2009)
Where two headings read alike, the source gives them in different places. Values belong to the compound of their own block, whether it stands above or below them. Non-standard residues stand in square brackets, D forms with d. Residues, ends and D or L forms follow the SMILES beside them. *: point of attachment. Boc = CC(C)(C)OC(=O)*; Aib = CC(C)(N)C(=O)O; Bn = c1ccc(C*)cc1

How the values were obtained:
γ-secretase [1] = target: T1, γ-secretase (Homo sapiens, UniProt P49768); conditions: photoaffinity labeling; Kornilova et al. 2005; cited from earlier work
γ-secretase [2] = target: T1, γ-secretase; design: detergent-solubilized membranes from HeLa cells; endogenous in cells; host or cells: HeLa cells (detergent-solubilized membranes); conditions: value from Ref. 22, cited from earlier work
[3] = test system: Aβ production in Chinese hamster ovary (CHO) cells stably transfected with human APP; test: cell-based assay of total Aβ production in CHO cells stably transfected with human APP
From the text: Based on the helical model for the APP transmembrane domain, short peptides were designed to adopt a similar conformation that block γ-secretase activity. Judicious replacement of selected residues of short APP-derived peptides with 2-aminoisobutyric acid (Aib), a known helix-inducing amino acid (19, 20), provided peptides that, in principle, mimic the γ-secretase cleavage site on one face of the helix, with Aib residues on the other face. Aib-containing peptides were identified that inhibit Aβ production in APP-transfected cells with 50 percent inhibitory concentrations (IC50's) as low as 2 μM. […] The crystal structure of this compound has been determined, and the peptide is fully helical (19). In certain embodiments the compounds of the invention have structures that are based on the partial APP sequence Val-Gly-Gly-Val-Val-Ile-Ala-Thr-Val-Ile-Val-Ile (SEQ ID NO:12; see FIG. 1). Basing the structures of the compounds of the invention on the partial APP sequence could enhance in vivo specificity of the compounds.
The top set of peptidomimetics (SEQ ID NOs: 1-5) was designed considering the cleavage leading to Aβ42, and the bottom set (SEQ ID NOs: 6-10) was designed considering the cleavage site leading to Aβ40. IC50 is the concentration of compound that reduced production of total Aβ by 50% in a cell-based assay using Chinese hamster ovary (CHO) cells stably transfected with human APP.
Starting from the reference D-decapeptide having SEQ ID NO:10 (IC50=90 nM), the enantiomers of the helical peptide L-series were tested for inhibitory activity. […] This greater than 40-fold loss of activity compared to the cell-free assay may be due to the need to enter into and/or cross cell membranes or some susceptibility to metabolic degradation.

γ-secretase [4] = target: T1, γ-secretase; test: cell-free γ-secretase assay using detergent-solubilized membranes from HeLa cells and a recombinant APP-based substrate; type: biochemical; design: detergent-solubilized membranes from HeLa cells; endogenous in cells; host or cells: HeLa cells (detergent-solubilized membranes)
Procedure: Compounds were tested in a γ-secretase assay using detergent-solubilized membranes from HeLa cells and a recombinant APP-based substrate (Table 2, 18). […] Moreover, the γ-secretase inhibition appears to show dependence on length.

[5] = CHO cells stably transfected with human APP, total Aβ, read-out: IC50 (concentration that reduced production of total Aβ by 50%)
[6] = APP-transfected CHO cells, read-out: IC50, cell-based assay

Compound: Boc-Val-Gly-Aib-Val-Val-Ile-Aib-Thr(OBz)-Val-Aib-OMe [SEQ ID NO:10 D-peptide]
site of interaction with γ-secretase (γ-secretase [1]): interacts with the initial substrate-binding site, but not the active site | IC50 (γ-secretase [2]; 50% inhibition of Aβ40 production, read-out: Cell-free Assay IC50): 90 nM

Compound: Boc-Val-Val-Ile-Aib-Thr(OBz)-Val-Aib-OMe [SEQ ID NO:7]
IC50 [3, 5]: 6000 nM

Compound: Boc-D-Val-Gly-Aib-D-Val-D-Val-D-BPA-Aib-D-Thr(OBz)-D-Val-Aib-OMe [SEQ ID NO:11]
IC50 [3, 6]: 100 nM

Compound: Ac-Val-Gly-Aib-Val-Val-Ile-Aib-Thr(OBz)-Val-Aib-Val-Val-Aib-NH2 (Ac-VG[Aib]VVI[Aib]XV[Aib]VV[Aib]-NH2; not fully specified (some residues); printed as Ac-Val-Gly-Aib-Val-Val-Ile-Aib-Thr(OBz)-Val-Aib-Val-Val-Aib-NH2) [SEQ ID NO:23 D-peptide]
site of interaction with γ-secretase (γ-secretase [1]): not only interact with the initial substrate-binding site but also extend into the active site

Compound: Boc-Val-Ile-Aib-Thr(OBz)-Val-Aib-OMe [SEQ ID NO:6]
IC50 [3, 5]: 12000 nM

Compound: Boc-Ala-Thr(OBz)-Aib-Ile-Val-Aib-OMe [SEQ ID NO:1]
IC50 [3, 5]: 25000 nM

Compound: Boc-Val-Gly-Aib-Val-Val-Ile-Aib-Thr(OBz)-Val-Aib-OMe [SEQ ID NO:10 L-peptide]
IC50 [3, 5]: 3000 nM | IC50 (γ-secretase [2]; reference decapeptide, read-out: IC50, cell-free γ-secretase assay): 30000 nM

Compound: Boc-Gly-Aib-Val-Val-Ile-Aib-Thr(OBz)-Val-Aib-OMe [SEQ ID NO:9]
IC50 [3, 5]: 3000 nM

Compound: Boc-Val-Aib-Ile-Ala-Thr(OBz)-Aib-Ile-Val-Aib-OMe [SEQ ID NO:4]
IC50 [3, 5]: 2000 nM

IC50, in words (γ-secretase [4]): subnanomolar | times more active than the other analogs of the D-series (γ-secretase [4]; D-series, cell-free assay): 100 times | IC50 (γ-secretase [4]; read-out: IC50, cell-free γ-secretase assay): 0.14 nM
Compound: CC[C@@H](C)[C@@H](NC(=O)[C@H](NC(=O)[C@H](NC(=O)C(C)(C)NC(=O)CNC(=O)[C@H](NC(=O)OC(C)(C)C)C(C)C)C(C)C)C(C)C)C(=O)NC(C)(C)C(=O)N[C@@H](C(=O)N[C@@H](C(=O)NC(C)(C)C(=O)N[C@@H](C(=O)N[C@@H](C(=O)NC(C)(C)C(=O)OC)[C@H](C)CC)C(C)C)C(C)C)[C@H](C)OCc1ccccc1 [SEQ ID NO:18 D-peptide, Boc-Val-Gly-Aib-Val-Val-Ile-Aib-Thr(OBz)-Val-Aib-Val-Ile-Aib-OMe] (Boc-[dV]G[Aib][dV][dV][dI][Aib][dT](Bn)[dV][Aib][dV][dI][Aib]-OMe)
IC50 [3, 6]: 9 ± 1 nM | loss of activity in cell-based assay compared to the cell-free assay ([3]; cell-based vs cell-free IC50): greater than 40 fold
